≈ marks a conversion by molar mass, not a printed value. Where “and” joins values, the source holds several entries; their conditions need not be identical. Equal entries are not always repeated. Blank lines part the entries; values can stand above or below the molecule they belong to.
What was measured:
Assay in all cases: ≥ marks a high value that may be exact or a test limit, other limits are often not marked, values filed in µg/mL are converted to µM
[1] = test system: Escherichia coli
[2] = test system: Salmonella enterica subsp. enterica serovar Enteritidis
[3] = test system: Listeria innocua
[4] = test system: Micrococcus luteus A270
[5] = test system: Stenotrophomonas maltophilia CUN 3998-00
[6] = test system: Staphylococcus aureus CUN 3792-99
[7] = test system: Bordetella bronchiseptica CUN 11844-99
[8] = test system: Pseudomonas aeruginosa CUN 4158-02
[9] = test system: Staphylococcus aureus ATCC 43300
[10] = test system: Acinetobacter baumannii ATCC 19606
[11] = test system: Staphylococcus aureus ATCC 25923
[12] = test system: Escherichia coli ATCC 25922
[13] = test system: Pseudomonas aeruginosa ATCC 27853
[14] = test system: Staphylococcus aureus IAM 1011
[15] = test system: Aeromonas salmonicida NCIMB 1102
[16] = test system: Photobacterium damselae subsp. piscicida Sp 9587
[17] = test system: Shewanella putrefaciens IAM 1509
[18] = test system: Salmonella typhimurium
[19] = test system: Vibrio anguillarum NCIMB 829
[20] = test system: Bacillus subtilis IAM 1026
[21] = test system: Escherichia coli JCM 1649
[22] = test system: Vibrio parahaemolyticus Vp+1
[23] = test system: Bacillus subtilis C971
[24] = test system: Pseudomonas aeruginosa H187
[25] = test system: Enterococcus faecalis C625
[26] = test system: Pseudomonas aeruginosa H188
[27] = test system: Salmonella typhimurium C587
[28] = test system: Staphylococcus epidermidis C621
[29] = test system: Staphylococcus epidermidis ATCC 12228
[30] = test system: Escherichia coli UB1005
[31] = test system: Staphylococcus aureus SAP 0017
[32] = test system: Corynebacterium xerosis C875
[33] = test system: Salmonella typhimurium C610
[34] = test system: Escherichia coli DC2
[35] = test system: Micrococcus luteus CCM 144
[36] = test system: Candida albicans F7-39/IDE99
[37] = test system: Bacillus subtilis 168
[38] = test system: Staphylococcus aureus
[39] = test system: Pseudomonas aeruginosa
[40] = test system: Escherichia coli B

MIC [1]: 9 µM (≈ 11.1 µg/mL)
MIC [2]: 9 µM (≈ 11.1 µg/mL)
MIC [3]: 1 µM (≈ 1.24 µg/mL)
MIC [4]: 1 µM (≈ 1.24 µg/mL)
SMILES: C[C@@H](O)[C@H](NC(=O)[C@H](CCCCN)NC(=O)[C@@H](NC(=O)[C@@H](NC(=O)[C@@H]1CCCN1C(=O)[C@@H](N)Cc1ccccc1)[C@@H](C)O)[C@@H](C)O)C(=O)N[C@@H](Cc1ccc(O)cc1)C(=O)N[C@@H](Cc1ccccc1)C(=O)N1CCC[C@H]1C(=O)N[C@@H](Cc1cnc[nH]1)C(=O)O [FPTTKTYFPH]

MIC [5]: ≥ 186 µM
MIC [6]: ≥ 372 µM
MIC [7]: 1.45 µM (≈ 4 µg/mL)
MIC [8]: ≥ 93 µM
MIC [9]: 23.2 µM (≈ 64 µg/mL)
MIC [10]: 23.2 µM (≈ 64 µg/mL)
MIC [11]: 11.6 µM (≈ 32 µg/mL)
MIC [12]: 23.2 µM (≈ 64 µg/mL)
MIC [13]: 93 µM (≈ 256 µg/mL)
SMILES: CC(C)C[C@H](NC(=O)[C@H](CCCN=C(N)N)NC(=O)[C@H](CCCN=C(N)N)NC(=O)[C@H](Cc1ccccc1)NC(=O)[C@H](CCCCN)NC(=O)[C@H](CCCCN)NC(=O)[C@H](CS)NC(=O)CN)C(=O)N[C@@H](CCCCN)C(=O)N[C@@H](Cc1c[nH]c2ccccc12)C(=O)N[C@@H](CCCCN)C(=O)N[C@@H](Cc1ccc(O)cc1)C(=O)N[C@@H](CCCCN)C(=O)NCC(=O)N[C@@H](CCCCN)C(=O)N[C@@H](Cc1ccccc1)C(=O)N[C@@H](Cc1c[nH]c2ccccc12)C(=O)N[C@@H](Cc1ccccc1)C(=O)N[C@@H](Cc1c[nH]c2ccccc12)C(=O)N[C@@H](CS)C(=O)NCC(N)=O [GCKKFRRLKWKYKGKFWFWCG]

MIC [1]: 54 µM (≈ 143 µg/mL)
MIC [2]: ≥ 38 µM
MIC [3]: 27 µM (≈ 71.7 µg/mL)
MIC [4]: ≥ 38 µM
SMILES: CC(C)C[C@H](NC(=O)[C@@H](N)C(C)C)C(=O)N[C@@H](CO)C(=O)N[C@@H](C)C(=O)N[C@@H](C)C(=O)N[C@@H](CC(=O)O)C(=O)N[C@@H](CCCCN)C(=O)NCC(=O)N[C@@H](CC(N)=O)C(=O)N[C@H](C(=O)N[C@@H](CCCCN)C(=O)N[C@@H](C)C(=O)N[C@@H](C)C(=O)N[C@@H](Cc1c[nH]c2ccccc12)C(=O)NCC(=O)N[C@@H](CCCCN)C(=O)N[C@H](C(=O)NCC(=O)NCC(=O)N[C@@H](Cc1cnc[nH]1)C(=O)N[C@@H](C)C(=O)N[C@@H](C)C(=O)N[C@@H](CCC(=O)O)C(=O)N[C@@H](Cc1ccc(O)cc1)C(=O)NCC(=O)N[C@@H](C)C(=O)N[C@@H](CCC(=O)O)C(=O)O)C(C)C)C(C)C [VLSAADKGNVKAAWGKVGGHAAEYGAE]

MIC [14]: 4.47 µM (≈ 6.25 µg/mL)
MIC [15]: 17.9 µM (≈ 25 µg/mL)
MIC [16]: 4.47 µM (≈ 6.25 µg/mL)
MIC [17]: 2.24 µM (≈ 3.13 µg/mL)
MIC [18]: 8.94 µM (≈ 12.5 µg/mL)
MIC [19]: 4.47 µM (≈ 6.25 µg/mL)
MIC [20]: 4.47 µM (≈ 6.25 µg/mL)
MIC [21]: 8.94 µM (≈ 12.5 µg/mL)
SMILES: CC[C@H](C)[C@H](N)C(=O)NCC(=O)NCC(=O)N[C@H](C(=O)N[C@H](C(=O)N[C@@H](CO)C(=O)N[C@@H](Cc1ccccc1)C(=O)N[C@@H](Cc1ccccc1)C(=O)N[C@@H](CCCCN)C(=O)N[C@@H](CCCN=C(N)N)C(=O)N[C@@H](CC(C)C)C(=O)N[C@@H](Cc1ccccc1)C(=O)O)[C@@H](C)CC)[C@@H](C)CC [IGGIISFFKRLF]
MIC [22]: 8.94 µM (≈ 12.5 µg/mL)

MIC [23]: 1.09 µM (≈ 3.24 µg/mL)
MIC [24]: 4.33 µM (≈ 12.9 µg/mL)
MIC [25]: 10.9 µM (≈ 32.4 µg/mL)
MIC [26]: 10.9 µM (≈ 32.4 µg/mL)
MIC [27]: 10.9 µM (≈ 32.4 µg/mL)
MIC [28]: 2.73 µM (≈ 8.11 µg/mL)
MIC [29]: 2 µM (≈ 5.95 µg/mL)
MIC [30]: 2.18 µM (≈ 6.49 µg/mL)
MIC [31]: 8.66 µM (≈ 25.8 µg/mL)
MIC [32]: 0.852 µM (≈ 2.53 µg/mL)
MIC [33]: 3.44 µM (≈ 10.2 µg/mL)
MIC [11]: 10.9 µM and 8 µM
MIC [34]: 1.7 µM (≈ 5.07 µg/mL)
MIC [12]: 4 µM (≈ 11.9 µg/mL)
MIC [13]: 8 µM (≈ 23.8 µg/mL)
SMILES: CC[C@H](C)[C@H](NC(=O)[C@H](C)NC(=O)[C@H](CCCCN)NC(=O)[C@H](CC(C)C)NC(=O)[C@H](C)NC(=O)[C@@H](NC(=O)[C@H](Cc1cnc[nH]1)NC(=O)[C@H](CC(C)C)NC(=O)[C@@H](NC(=O)[C@@H](NC(=O)[C@H](CCCCN)NC(=O)[C@H](CC(C)C)NC(=O)[C@H](C)NC(=O)[C@H](CO)NC(=O)[C@H](CCCCN)NC(=O)[C@H](Cc1ccccc1)NC(=O)[C@@H](NC(=O)[C@H](CCCCN)NC(=O)[C@H](CC(C)C)NC(=O)[C@H](Cc1ccccc1)NC(=O)[C@H](CO)NC(=O)[C@H](CCCCN)NC(=O)[C@H](Cc1c[nH]c2ccccc12)NC(=O)[C@H](CCCCN)NC(C)=O)[C@@H](C)O)[C@@H](C)O)C(C)C)[C@@H](C)O)C(=O)N[C@@H](CO)C(=O)N[C@@H](CO)C(N)=O [KWKSFLKTFKSALKTVLHTALKAISS]

MIC [35]: 9 µM (≈ 12.8 µg/mL)
MIC [36]: 9.8 µM (≈ 13.9 µg/mL)
MIC [37]: 5.8 µM (≈ 8.23 µg/mL)
MIC [38]: 100 µM (≈ 142 µg/mL)
MIC [39]: 83.3 µM (≈ 118 µg/mL)
MIC [40]: 17.1 µM (≈ 24.3 µg/mL)
SMILES: CC[C@H](C)[C@H](NC(=O)[C@H](C)NC(=O)CNC(=O)[C@H](Cc1c[nH]c2ccccc12)NC(=O)[C@H](CC(N)=O)NC(=O)[C@@H](N)CCCCN)C(=O)N[C@@H](CC(C)C)C(=O)N[C@@H](CCCCN)C(=O)N[C@@H](Cc1cnc[nH]1)C(=O)N[C@H](C(=O)N[C@H](C(=O)N[C@@H](CCCCN)C(N)=O)[C@@H](C)CC)[C@@H](C)CC [KNWGAILKHIIK]

— DBAASP
